Where two headings read alike, the source gives them in different places.
Legend:
wild type HBV (pHBV 1.3) = test: microbe, parasite or virus in culture; type: cell-based; details: read-out: HBeAg IC50
HBV genotypes A‒D = test: Antiviral activity across HBV genotypes A‒D in Huh7; type: cell-based; details: Hepatitis B virus, Huh-7, read-out: IC50 across HBV genotypes
[1] = test system: ETV-resistant HBV (rtL180M + A181C + M204V); test: microbe, parasite or virus in culture; type: cell-based; details: Hepatitis B virus
in vivo = test: in vivo; set-up: species or system ICR mouse
Cp149 protein = Cp149 protein (Hepatitis B virus genotype D subtype ayw, UniProt P03146); test: biochemical; details: read-out: inhibition of capsid formation
[2] = test system: wild-type HBV (genotype C); test: microbe, parasite or virus in culture; type: cell-based; details: Hepatitis B virus
HBV [3] = test: HBVcircle transfection system in Huh7 cells; type: cell-based, Hepatitis B virus; details: 0.1-200 μmol/L, 48 h
HBV [4] = test: HBV infection of HepG2-NTCP cells, secreted HBeAg by ELISA
HBV [5] = details: cited from earlier work
HBcAg = HBcAg (Hepatitis B virus genotype D subtype ayw, UniProt P03146); type: cell-based
[6] = Huh-7, read-out: HBeAg IC50, rt180M181C204V

Chain of HBcAg (P03146 whole entry): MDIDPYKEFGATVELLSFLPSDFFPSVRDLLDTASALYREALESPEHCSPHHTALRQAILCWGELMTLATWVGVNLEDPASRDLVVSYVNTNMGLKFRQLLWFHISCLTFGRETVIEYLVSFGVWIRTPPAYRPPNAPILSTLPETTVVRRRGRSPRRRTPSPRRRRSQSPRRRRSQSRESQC
Chain of Cp149 protein (P03146 1-149): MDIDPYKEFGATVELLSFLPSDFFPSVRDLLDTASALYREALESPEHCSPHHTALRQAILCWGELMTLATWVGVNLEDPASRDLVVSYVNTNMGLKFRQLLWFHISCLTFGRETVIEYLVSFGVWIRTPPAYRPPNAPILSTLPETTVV

In the case of `COc1ccc(Cc2nc(NC(=O)C34CC5CC(CC(C5)C3)C4)n(C)c2Cc2ccc(OC)c(OC)c2)cc1` [11a, (Z)-N-(5-(3,4-Dimethoxybenzyl)-4-(4-methoxybenzyl)-1-methyl-1,3-dihydro-2H-imidazole-2-ylidene)adamantane-1-carboxamide], the IC50 (wild type HBV (pHBV 1.3); Hepatitis B virus) is reported as 15200 nM, the IC50 (HBV genotypes A‒D) is reported as 100 to 1970 nM and the IC50 ([1]; Huh-7, ETV-resistant cells) is reported as 13700 nM. For the same molecule, the IC50 [1, 6] was 45700 nM, the half-life (in vivo; both, ICR, mouse, in vivo) was 3 to 6.2 h and the bioavailability (in vivo; both, ICR, mouse, in vivo, po, 10 mg/kg) was 24.8 to 39.2%. The plasma clearance (in vivo; po, range over female and male mice) was 202 to 322 mL/min/kg, the inhibition at 40 µM (Cp149 protein) was 53% and the “HBV DNA vs control group” value (HBV (pHBV1.3); 50 mpk b.i.d., intraperitoneal) was “no statistical difference”. The “serum HBeAg and HBsAg levels” value (HBV (pHBV1.3); 50 or 100 mpk b.i.d.) was “None of these treatments altered serum HBeAg and HBsAg levels”, the “reduction of HBV DNA in plasma” value (HBV (pHBV1.3); 100 mpk b.i.d., intraperitoneal, Day 5) was 4 fold and the “antiviral effect of combination with TDF” value (HBV (pHBV1.3); TDF 2 mpk q.d. and 11a 100 mpk b.i.d.) was “weak synergistic antiviral effects”. For the same molecule, the “serum ALT and AST levels or body weight” value (HBV (pHBV1.3); control vs experimental groups) was “no significant changes”, the “H&E staining in liver tissues” value (HBV (pHBV1.3); mouse, in vivo) was “no obvious pathological changes” and the “levels of HBcAg in liver, immunofluorescence” value (HBV (pHBV1.3); mouse, in vivo) was “significantly reduced the levels of HBcAg”. For the same molecule, the IC50 ([2]; Huh-7, read-out: HBeAg IC50) was 12900 nM, the IC50 ([2]; Huh-7, wild-type cells) was 750 nM and the “HBsAg and cccDNA” value (HBV [3]) was “not HBsAg and cccDNA”. For the same molecule, the “secreted HBeAg” value (HBV [3]) was “inhibits HBeAg in a concentration-dependent manner”, the IC50 (HBV [4]; Hepatitis B virus, read-out: half inhibitory concentration on HBeAg) was 23700 nM and the “inhibition of HBeAg levels in combination with IFNa2” value (HBV [4]; IFNa2 1000 IU/mL plus 11a 10 and 30 μmol/L, HepG2-NTCP) was “significant synergistic inhibition”.

For `C[C@H](NS(=O)(=O)c1cc(C(=O)Nc2ccc(F)c(C#N)c2)n(C)c1)C(F)(F)F` [JNJ-379], the IC50 (HBV [5]; no reference printed directly) is given as 69 nM.

In the case of `O=C(NCc1cnc(C(F)(F)F)s1)c1ccc2c(c1)NC(=O)c1ccccc1S2(=O)=O` [vebicorvir], the IC50 (HBV [5]) is listed as 173 nM.

For `COc1ccccc1/C(Br)=C(\NC(=O)c1ccc([N+](=O)[O-])cc1)C(=O)N1CCCCC1` [AT-130], the IC50 (HBV [5]) is listed as 127 nM.

In the case of `COC(=O)C1=C(C)NC(c2ncc(F)cc2F)=N[C@H]1c1ccc(F)cc1Cl` [Bay 41-4109], the IC50 (HBV [5]; anti-HBV potency) is listed as 50 nM.

For `COC(=O)C1=C(CN2CCOCC2)NC(c2nccs2)=N[C@@H]1c1ccc(F)cc1Br` [NVR-010-001-E2], the IC50 (HBV [5]) is listed as 11 nM.

In the case of `CCOC(=O)C1=C(CN2CCO[C@H](CCC(=O)O)C2)NC(c2nccs2)=N[C@H]1c1ccc(F)cc1Br` [HEC72702, 3-((R)-4-(((R)-6-(2-Bromo-4-fluorophenyl)-5-(ethoxycarbonyl)-2-(thiazol-2-yl)-3,6-dihydropyrimidin-4-yl)methyl)morpholin-2-yl)propanoic acid], the IC50 (HBV [5]) is listed as 39 nM.

For `CCOC(=O)C1=C(CN2CCN3C(=O)N(CC(C)(C)C(=O)O)C[C@@H]3C2)N=C(c2nccs2)N[C@H]1c1cccc(F)c1C` [RG7907, linvencorvir], the IC50 (HBV [5]) is listed as 6 nM.

In the case of GLS4, the IC50 (wild type HBV (pHBV 1.3); Wide type (pHBV 1.3)) is given as 252 nM, the IC50 (HBV [5]) is given as 12 nM and the “concentration needed to significantly inhibit HBcAg's expression” value (HBcAg) is given as “above 10 μmol/L”. For the same molecule, the “decrease of HBcAg expression” value (HBcAg) was 56.4%.

For `Cc1cc(NC(=O)c2cccc(S(=O)(=O)N[C@H]3CCOC3)c2)ccc1F` [JNJ-632], the IC50 (HBV [5]) is listed as 120 nM.

`C=C1[C@H](CO)[C@@H](O)C[C@@H]1n1cnc2c(=O)[nH]c(N)nc21` [ETV, entecavir, reference compound] showed an IC50 [1, 6] greater than 100000 nM and an IC50 ([2]; Huh-7, read-out: HBeAg IC50) greater than 100000 nM.
